Measurements: US20230404887A1, “COMPOSITIONS TO LIMIT OR ELIMINATE THE PERCEPTION OF SWEAT MALODOR” (Firmenich SA, priority 2020, published 2023)

Assays:
[1] = Expert perfumer evaluation of malodor reduction, dynamic olfactometer, against 3M3SH; set-up: species or system human; details: for EFFECTIVE CONCENTRATION: MO 3M3SH held fixed at mid-intensity (0.5), headspace concentration providing an effective level; for EXPERT RATING: MO 3M3SH held fixed at mid-intensity (0.5 on scale 0-1), rating of degree of malodor reduction at the effective concentration
Procedure: (§1) The effectiveness of perfuming materials in compositions to reduce the perception of, for example, axillary sweat malodors, was evaluated by an expert perfumer by 1) selecting target axillary malodor components, 2) delivering target malodor components and candidate malodor reducing materials to the nose of an expert perfumer at carefully controlled concentrations, 3) having the expert perfumer identify the concentration at which malodor reduction was obtained, and 4) rating the degree of reduction achieved at the concentration identified in step 3.
(§2) In this method, a dynamic multi-channel olfactometer was used to precisely deliver known gas phase concentrations of the test materials, using forced evaporation, into a stream of air emanating from a smelling port. The appropriate concentration of the malodor component was established prior to its being mixed with the candidate malodor reducing substance. The concentration was set at a concentration sufficient to produce an intensity of 0.5 (mid-intensity) on a scale of 0-1. The expert perfumer then dynamically adjusted the concentration of the candidate malodor reducing substance to determine the effective concentration, while maintaining a fixed concentration of the malodor component. Once the appropriate concentration had been determined, the expert perfumer evaluated the perception of the mixtures repeatedly over a period of several minutes, taking breaks in between sniffs to avoid adaptation to the components being tested, before providing a rating.
(§3) Tests were performed in a forced-evaporation, dynamic olfactometer, with malodor component concentrations held fixed at a mid-intensity. Ratings of effectiveness were based in the following scale: −2 (significant increase in malodor), −1 (slight increase in malodor), 0 (no effect), 1 (slight malodor reduction), 2 (good malodor reduction), 3 (complete malodor reduction). The malodor (MO) component abbreviations are 3H3MHA (3-methyl-3-hydroxyhexanoic acid), 3M2HA (3-methyl-2-hexenoic acid), 3M3SH (3-methyl-3-sulphanylhexanol).

[2] = Expert perfumer evaluation of malodor reduction, dynamic olfactometer, against 3M2HA; set-up: species or system human; details: for EFFECTIVE CONCENTRATION: MO 3M2HA held fixed at mid-intensity (0.5), headspace concentration providing an effective level; for EXPERT RATING: MO 3M2HA held fixed at mid-intensity (0.5 on scale 0-1), rating of degree of malodor reduction at the effective concentration
Procedure: as §1, §2, §3

Compound	EFFECTIVE CONCENTRATION [1] [micrograms/L AIR]	EXPERT RATING [1]	EFFECTIVE CONCENTRATION [2] [micrograms/L AIR]	EXPERT RATING [2]
CC(=O)/C=C/C1=C(C)CCCC1(C)C	1.17E−01	3	5.83E−02	3
3-(2/4-ETHYLPHENYL)-2,2-DIMETHYLPROPANAL	7.33E−01	2	3.67E−01	3
CCCCCC1(C)CCC(C)(C)C1=O (racemic)			1.22E+00	2
CCC(C)CCCC(C)(C)O (racemic)	1.08E+01	2	5.40E+00	2
C=CC(C)CCCC(C)(C)O (racemic)			4.33E+00	2
CCC(C)(O)CCCC(C)C (racemic)			9.27E+00	2
CC(C)=C[C@H]1C[C@@H](C)CCO1 (racemic) [(2RS,4SR)-4-METHYL-2-(2-METHYL-1-PROPEN-1-YL)TETRAHYDRO-2H-PYRAN]	6.83E−01	1	6.83E−01	2
C[C@H]1CCO[C@@H](c2ccccc2)C1 (racemic) [(2RS,4SR)-4-METHYL-2-PHENYLTETRAHYDRO-2H-PYRAN]	2.67E−01	3		
CC1(C)CCC[C@]2(C)[C@H]3CCO[C@]3(C)CC[C@@H]12 (racemic) [(3aRS,5aSR,9aSR,9bRS)-3a,6,6,9a-TETRAMETHYLDODECAHYDRONAPHTHO[2,1-b]FURAN]	2.17E−03	3	4.33E−03	3
CC(=O)OC(C)(C)C1CC=C(C)CC1 (racemic) [(+−)-2-(4-METHYL-3-CYCLOHEXEN-1-YL)-2-PROPANYL ACETATE]	1.08E+00	3	1.08E+00	3
CCCCCCCCCC(C)C=O (racemic) [(+−)-2-METHYLUNDECANAL]			2.33E−03	2
CCC(C)c1ccc2ncccc2c1 (racemic) [(+−)-6-SEC-BUTYLQUINOLINE]	1.83E−02	3		
CC1C/C=C/CCCCCCCCCC(=O)C1 (racemic) [(+−)-(5E)-3-METHYL-5-CYCLOPENTADECEN-1-ONE]	5.83E−01	1	2.33E−01	2
C=CC(C)(CC/C=C(\C)CC)OC(C)=O (racemic) [(+−)-(6E)-3,7-dimethyl-1,6-nonadien-3-yl acetate]	6.67E+00	2		
CC/C=C(\C)C(O)CCCCC (racemic) [(+−)-(E)-4-METHYL-3-DECEN-5-OL]	4.27E−01	3	2.13E−01	3
O=c1ccc2ccccc2o1 [2-CHROMENONE]	7.87E−02	3	9.83E−03	3
CCc1occc(=O)c1O [2-ETHYL-3-HYDROXY-4(4H)-PYRANONE]	1.83E−02	2	1.83E−02	3
COc1ccc2ccccc2c1 [2-METHOXYNAPHTHALENE]	5.00E−02	3	1.25E−02	3
OCCc1ccccc1 [2-PHENYLETHANOL]	1.08E+00	2	5.42E−01	3
O=CCCc1ccccc1 [3-PHENYLPROPANAL]	2.60E+00	3	2.60E+00	3
CC(=O)CCc1ccc(O)cc1 [4-(4-HYDROXYPHENYL)-2-BUTANONE]	6.00E−04	1	1.50E−04	3

Compound	EFFECTIVE CONCENTRATION [1] [micrograms/L AIR]	EXPERT RATING [1]	EFFECTIVE CONCENTRATION [2] [micrograms/L AIR]	EXPERT RATING [2]
COc1ccc(C=O)cc1 [4-METHOXYBENZALDEHYDE]			6.83E−02	2
COc1ccc(COC(C)=O)cc1 [4-METHOXYBENZYL ACETATE]	2.37E+00	2	1.18E+00	3
CC(=O)CCc1ccccc1 [4-PHENYL-2-BUTANONE]	3.75E−01	2	7.50E−01	3
C=CCCCCCCCCC=O [10-UNDECENAL]	9.50E−02	2	9.50E−03	3
COC(Cc1ccccc1)OC [(2,2-DIMETHOXYETHYL)BENZENE]	3.92E+00	2	3.92E+00	3
OC/C=C/c1ccccc1 [(2E)-3-PHENYL-2-PROPEN-1-OL]	6.50E−02	2		
CCCCCCC/C=C\CCC=O [(4Z)-4-DODECENAL]	2.07E−04	1	1.03E−04	2
O=C1CCCCCCC/C=C/CCCCCCO1 [(10E)-OXACYCLOHEPTADEC-10-EN-2-ONE]	2.87E−01	2	7.17E−02	2
C=CCOC(=O)CCCCCC [ALLYL HEPTANOATE]			4.13E+00	3
C=CCOC(=O)CCCCC [ALLYL HEXANOATE]	2.12E+00	3	1.06E+00	3
CCCCCCCCCC=O [DECANAL]	2.50E−01	2	5.00E−01	3
CCOC(=O)CC1(C)OCCO1 [ETHYL 2-METHYL-1,3-DIOXOLANE-2-ACETATE]			7.07E+00	2
CCOC(=O)/C=C/c1ccccc1 [ETHYL (E)-3-PHENYL-2-PROPENOATE]	3.67E−02	2	7.33E−02	2
COC(=O)c1c(C)cc(O)c(C)c1O [METHYL 2,4-DIHYDROXY-3,6-DIMETHYLBENZOATE]	3.50E−03	3	3.50E−03	3
CCCCCC#CC(=O)OC [METHYL 2-OCTYNOATE]	4.67E−01	3	4.67E−01	3
COC(=O)/C=C/c1ccccc1 [METHYL (E)-3-PHENYL-2-PROPENOATE]	9.33E−02	2	7.00E−02	3
CCCCCCCC=O [OCTANAL]	3.08E−01	2	6.17E−01	3
CCCCCOC(=O)c1ccccc1O [PENTYL 2-HYDROXYBENZOATE]	5.00E−01	3		
Cc1ccc(C(C)C)c(O)c1 [THYMOL]	1.03E−01	3	5.17E−02	3
CCCCCCCCCCC=O [UNDECANAL]	2.17E−01	3	5.42E−02	3
